Entries after “also recorded” stand apart in the source; their conditions may differ.

The subject of one assay is H929 tumor cells. Description: H929 human multiple myeloma xenograft, pomalidomide study (Example 3). It is filed as in vivo, SCID mice. The following applies: pomalidomide 2.5 mg/kg ip qd × 21; constructs 40 μg/dose ip biwk × 4; FIG. 5. How it is done: Pomalidomide, like lenalidomide, is a derivative and an analog of thalidomide with increased potency against multiple myeloma and reduced toxicity.
In brief, sixty female CB.17 SCID mice were injected with 1×10^7 H929 tumor cells subcutaneously in the right flank. […] The endpoint for the study was when tumor volume reached 2000 mm^3. Cohorts were divided as follows, as summarized in Table 6: Group 1, Vehicle (PBS); Group 2, Pomalidomide alone (2.5 mg/kg); Group 3, Anti-CD38-attenuated IFNα- (40 ug/dose); Group 4, Anti-isotype-IFNα-attenuated (40 ug/dose), Group 5, Pomalidomide (2.5 mg/kg) plus anti-CD38-attenuated IFNa (40 μg/dose); and Group 6, Pomalidomide (2.5 mg/kg) plus anti-isotype-attenuated IFNα- (40 μg/dose), Pomalidomide administration started at day 1 and ended on day 21; antibody-interferon fusion construct administration started on day 1 and ended on day 28.
(In general: Xenograft models place foreign cells or tissue in a host animal.)

Assay [1] deals with NCI-H929 multiple myeloma cells. Description: NCI-H929 multiple myeloma xenograft, anti-CD38 antibody-attenuated IFN alpha-2b construct + lenalidomide (Example 1). The following applies: IFN-alpha 0.5 mg/kg; for tumor growth / tumor volume as a function of time (in words): construct 2.5 mg/kg ip biweekly (suboptimal), lenalidomide 2.5 mg/kg or 25 mg/kg daily for 21 days ip, FIG. 1, FIG. 2; for time at which tumor growth initiated and accelerated: after commencing treatment, construct 2.5 mg/kg ip biweekly, lenalidomide 2.5 mg/kg. Format: in vivo, SCID mice. How it is done:
When tumors reached an average size of 200-300 mm^3, mice were pair matched into different groups and then treated with vehicle (PBS), free-non-attenuated interferon alpha (IFN-alpha) at 0.5 mg/kg, a suboptimal dose of an anti-CD38 antibody-IFN alpha-2b-145D construct (2.5 mg/kg, molar equivalent to 0.5 mg/kg IFN; ip, biweekly, which was determined by previous in vivo efficacy studies), an isotype-matched antibody-IFN alpha-2b-145D construct (isotype matched to the anti-CD38 antibody, with no anti-CD38 specificity), lenalidomide alone (2.5 mg/kg), a combination of free-non-attenuated interferon alpha and lenalidomide, a combination of lenalidomide and a suboptimal dose of the anti-CD38 antibody-IFN alpha-2b-145D construct, or a combination of the isotype control antibody-IFN alpha-2b-145D construct and lenalidomide. The amount of the anti-CD38 antibody-attenuated IFN alpha-2b construct administered was normalized to an IFN-alpha molar equivalent of the 0.5 mg/kg of free interferon administered to the animals.

For assay [2], the system named is H929 multiple myeloma tumor cells.
Procedure: In this experiment, 8-12 week-old female CB.17 severe combined immunodeficient (SCID) mice were implanted with 1×10^7 H929 multiple myeloma tumor cells in 50% Matrigel® subcutaneously in the flank. Tumor volume was measured by calipers biweekly. When tumors reached an average size of 170-350 mm^3, mice were randomized and treatment commenced. An animal was terminated if the tumor grew to a volume of greater than 2000 mm^3 before the study was completed at day 60.
Ten animals were assigned to each of groups 1 to 10. Treatment may cause “partial regression” (PR) or complete regression (CR) of the tumor in an animal. In a PR response, the tumor volume was 50% or less of its Day 1 volume for three consecutive measurements during the course of the study, and equal to or greater than 13.5 mm^3 for one or more of these three measurements. In a CR response, the tumor volume was less than 13.5 mm^3 for three consecutive measurements during the study. Any animal with a CR response at the end of the study was additionally classified as a tumor free survivor (TFS).
The mark [3] stands for this setting: Group 2: lenalidomide 25 mg/kg ip qd × 21, ten animals per group.

Consider `Nc1cccc2c1C(=O)N(C1CCC(=O)NC1=O)C2=O` (racemic) [Pomalidomide, (RS)-4-Amino-2-(2,6-dioxopiperidin-3-yl)isoindole-1,3-dione], for which the “tumor growth / tumor shrinkage (in words)” value with H929 tumor cells was “did not substantially slow tumor growth”.

As for `Nc1cccc2c1CN(C1CCC(=O)NC1=O)C2=O` (racemic) [lenalidomide, (RS)-3-(4-Amino-1-oxo 1,3-dihydro-2H-isoindol-2-yl)piperidine-2,6-dione], in assay [1], the “tumor growth / tumor volume as a function of time (in words)” value was “delayed tumor growth relative to the vehicle control; also recorded: delayed the onset of rapid tumor growth”; the “time at which tumor growth initiated and accelerated” value was “within two weeks to about a month”. Moreover, in assay [2] (Group 2: lenalidomide 25 mg/kg ip qd × 21), the “MTV Day 60 (Median Tumor Volume at study end)” value was determined as 726 mm^3. Besides, in assay [2] (setting [3]), the “(n) number of surviving animals used for MTV calculation, Day 60” value is 1; the “CR No. of Complete Regressions” value is 0; the “PR No. of Partial Regressions” value was 1; the “TFS No. of Tumor Free Survivors” value was 0. The “tumor growth (in words)” value in assay [2] (sub-optimal dosage of construct, lenalidomide 25 mg/kg, Table 5 and FIG. 3) is “delayed tumor growth relative to vehicle control”.

Consider interferon alpha, for which, in assay [1], the “tumor growth / tumor volume as a function of time (in words)” value is reported as “delayed tumor growth relative to the vehicle control”; the “time at which tumor growth initiated and accelerated” value was “within two weeks to about a month”.

Source of the values: US10232041B2, “Combination of lenalidomide and polypeptide construct, and uses thereof” (Teva Pharmaceuticals Australia Pty Ltd, priority 2014, dated 2019).
